Measured values as given in article PMC5085761 (International Journal of Molecular Sciences, 2016).

What was measured:
LLC-PK1 monolayer model = experiment: Inhibition study of [14C]fluciclovine apical-to-basal transport, LLC-PK1 monolayer model
Description: Natural and synthetic amino acids were used as inhibitors: MeAIB (2-(methylamino)-isobutyric acid, for system A in the presence of Na^+); Thr (L-threonine, for system ASC in the presence of Na^+); and BCH (2-aminobicyclo[2,2,1]heptane-2-carboxylic acid, for system L in the absence of Na^+).

human P-gp = biological target: T1, human P-gp (Homo sapiens, UniProt P08183); experiment: [14C]fluciclovine uptake by P-gp-expressing inside-out vesicles; type: in vitro ADME
T1 construct: purchased GenoMembrane Co., Ltd. (Kanagawa, Japan); host or cells: Sf9
Experimental: For ABC transporters, experimental kits containing Sf9-derived vesicles with high expression levels of human P-gp, MRP4, BCRP, and each ABC transporter (including buffer, ATP/AMP solution, and glutathione) were purchased from GenoMembrane Co., Ltd. (Kanagawa, Japan).
Vesicular transport assays were carried out according to the manufacturer’s protocol. […] The reaction was started by suspending 50 μg of vesicles (10 μL) in 40 μL of the reaction buffer. After incubation for an appropriate period of time, the reaction was stopped by the addition of ice-cold stop buffer (40 mM MOPS-Tris and 70 mM KCl; pH 7.0), after which the solution was filtered through a 0.45 μm HA filter (Millipore Corp., Billerica, MA, USA) using suction, and was washed twice in 5 mL of ice-cold stop buffer. The radioactivity of the filter was measured with a Tri-Carb 2910TR liquid scintillation counter (PerkinElmer) using Ultima Gold (PerkinElmer). The amount of tracer uptake was normalized to the membrane protein amount described in the product information sheets.

OCT2 [1] = biological target: T2, OCT2 (Homo sapiens, UniProt O15244); experiment: [14C]fluciclovine uptake by OCT2-expressing cells; type: in vitro ADME; details: OCT2 cells vs mock cells
T2 construct: host or cells: HEK293
T2 sequence (O15244 1-555): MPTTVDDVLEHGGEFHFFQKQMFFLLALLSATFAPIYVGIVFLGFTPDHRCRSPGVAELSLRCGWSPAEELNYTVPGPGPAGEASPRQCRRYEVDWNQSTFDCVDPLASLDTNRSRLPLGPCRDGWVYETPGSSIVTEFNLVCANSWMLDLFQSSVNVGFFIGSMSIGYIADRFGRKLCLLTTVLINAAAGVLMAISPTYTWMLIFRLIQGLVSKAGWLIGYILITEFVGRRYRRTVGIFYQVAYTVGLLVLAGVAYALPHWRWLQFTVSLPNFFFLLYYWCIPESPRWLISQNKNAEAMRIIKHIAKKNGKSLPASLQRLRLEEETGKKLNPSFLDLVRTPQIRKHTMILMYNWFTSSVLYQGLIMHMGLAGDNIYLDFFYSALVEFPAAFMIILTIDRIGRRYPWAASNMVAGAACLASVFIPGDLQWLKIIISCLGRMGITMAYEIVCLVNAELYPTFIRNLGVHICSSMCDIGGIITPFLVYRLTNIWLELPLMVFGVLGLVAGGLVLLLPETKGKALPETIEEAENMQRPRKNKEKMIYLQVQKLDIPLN

OAT1 = biological target: T3, OAT1 (Homo sapiens, UniProt Q4U2R8); experiment: Inhibition of tracer uptake in OAT1-expressing cells; type: in vitro ADME; details: OAT1, tracer [14C]PAH 1 µM
T3 construct: host or cells: Flp-in-293
T3 sequence (Q4U2R8 1-563): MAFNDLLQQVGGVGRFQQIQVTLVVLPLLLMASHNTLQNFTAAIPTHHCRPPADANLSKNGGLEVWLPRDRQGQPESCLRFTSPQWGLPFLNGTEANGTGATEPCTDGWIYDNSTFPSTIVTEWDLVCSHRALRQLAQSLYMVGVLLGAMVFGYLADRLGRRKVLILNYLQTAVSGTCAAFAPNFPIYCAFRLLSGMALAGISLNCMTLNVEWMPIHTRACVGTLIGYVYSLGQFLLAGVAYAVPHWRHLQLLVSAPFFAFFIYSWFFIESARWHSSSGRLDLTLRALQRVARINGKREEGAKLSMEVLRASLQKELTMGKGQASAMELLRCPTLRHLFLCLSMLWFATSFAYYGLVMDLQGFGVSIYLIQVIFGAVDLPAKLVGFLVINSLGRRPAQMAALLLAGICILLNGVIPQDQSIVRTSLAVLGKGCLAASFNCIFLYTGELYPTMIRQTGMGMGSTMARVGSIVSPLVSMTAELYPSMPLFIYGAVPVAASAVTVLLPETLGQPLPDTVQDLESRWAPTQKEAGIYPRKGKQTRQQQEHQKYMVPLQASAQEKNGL
Experimental: For the SLC transporter experiments, Mock Flp-in-293 cells (Flp/mock), OAT1-expressing Flp-in-293 cells (Flp/OAT1), mock HEK293 cells (HEK/mock), and OATP1B3-expressing HEK293 cells (HEK/OATP1B3) were obtained from Kanazawa University (Ishikawa, Japan). Briefly, Flp-in-293 and HEK293 cells were transfected with the appropriate plasmid DNA and selected using antibiotics (hygromycin or G-418). All cell lines were cultured in DMEM (Life Technologies Japan) supplemented with 10% (v/v) fetal bovine serum (American Type Culture Collection) and antibiotics (100 U/mL penicillin and 100 μg/mL streptomycin (Life Technologies Japan) for mock cells, 0.2 mg/mL hygromycin for Flp/OAT1 cells, and 1.2 mg/mL G-418 (Roche Diagnostics K.K., Tokyo, Japan) for HEK/OATP1B3 cells) at 37 °C under an atmosphere containing 5% CO2. […]
The experiments were performed as described previously, with minor modifications. […] The cells were lysed in 0.3 mL of 0.1N NaOH at room temperature, after which the radioactivity of each aliquot was measured as described above. The protein concentration of the cell lysate was determined with a VersaMax microplate reader (Molecular Devices Japan K.K., Osaka, Japan) or SpectraMax i3x (Molecular Devices Japan K.K.; only for OATP1B1) using a BCA Protein Assay Kit (Thermo Fisher Scientific, Kanagawa, Japan). Tracer uptake was expressed as pmol/mg protein. […]

OCT2 [2] = biological target: T2, OCT2; experiment: Inhibition of tracer uptake in OCT2-expressing cells; type: in vitro ADME; details: OCT2, tracer [14C]metformin 10 µM

T1 sequence (P08183 whole entry): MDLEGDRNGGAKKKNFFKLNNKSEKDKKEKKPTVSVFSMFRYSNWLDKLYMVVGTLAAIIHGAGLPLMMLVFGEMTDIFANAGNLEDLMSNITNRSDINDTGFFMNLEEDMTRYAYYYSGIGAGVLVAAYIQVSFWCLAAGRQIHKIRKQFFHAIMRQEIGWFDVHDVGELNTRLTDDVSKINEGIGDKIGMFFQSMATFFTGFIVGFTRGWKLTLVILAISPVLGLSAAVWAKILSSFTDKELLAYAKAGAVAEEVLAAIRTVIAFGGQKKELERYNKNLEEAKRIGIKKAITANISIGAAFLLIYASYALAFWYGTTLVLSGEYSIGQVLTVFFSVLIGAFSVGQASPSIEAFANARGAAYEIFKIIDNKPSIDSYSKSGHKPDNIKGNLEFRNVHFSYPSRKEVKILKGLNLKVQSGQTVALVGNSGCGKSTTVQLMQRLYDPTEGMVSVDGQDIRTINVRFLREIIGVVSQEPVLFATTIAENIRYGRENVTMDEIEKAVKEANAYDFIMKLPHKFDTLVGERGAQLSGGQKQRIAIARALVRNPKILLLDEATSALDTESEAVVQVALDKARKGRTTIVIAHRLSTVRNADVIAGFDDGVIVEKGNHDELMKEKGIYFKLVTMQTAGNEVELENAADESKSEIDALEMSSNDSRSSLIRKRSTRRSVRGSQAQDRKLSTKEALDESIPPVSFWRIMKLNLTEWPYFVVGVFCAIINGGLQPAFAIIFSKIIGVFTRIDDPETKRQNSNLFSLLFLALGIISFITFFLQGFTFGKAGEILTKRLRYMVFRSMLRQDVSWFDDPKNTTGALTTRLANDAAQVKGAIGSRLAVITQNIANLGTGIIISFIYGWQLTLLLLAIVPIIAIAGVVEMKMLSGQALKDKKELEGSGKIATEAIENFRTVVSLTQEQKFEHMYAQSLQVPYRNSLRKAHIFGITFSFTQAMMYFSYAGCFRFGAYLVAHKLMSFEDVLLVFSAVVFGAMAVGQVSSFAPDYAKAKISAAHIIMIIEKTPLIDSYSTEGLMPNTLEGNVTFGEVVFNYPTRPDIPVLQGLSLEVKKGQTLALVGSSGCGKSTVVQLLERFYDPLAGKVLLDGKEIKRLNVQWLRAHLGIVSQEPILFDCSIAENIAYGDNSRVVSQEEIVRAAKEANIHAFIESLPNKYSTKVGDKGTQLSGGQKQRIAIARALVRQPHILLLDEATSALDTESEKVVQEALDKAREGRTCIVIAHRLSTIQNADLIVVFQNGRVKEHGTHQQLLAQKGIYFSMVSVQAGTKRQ

| IC50 (OAT1) [mM] | IC50 (OCT2 [2]) [mM] | SMILES | apical-to-basal transport rate, % of the control in Na+ buffer (LLC-PK1 monolayer model; Na+-free buffer, 10 µM, 120 min) [%] | contribution of Na+-dependent transport to the total penetration amount (LLC-PK1 monolayer model; control in Na+-free buffer subtracted from control in Na+ buffer) [%] | uptake compared with control vesicles (human P-gp) | drug transporter-mediated uptake (OCT2 [1]) |
| --- | --- | --- | --- | --- | --- | --- |
| – | – | N[14C]1(C(=O)O)CC(F)C1 (stereo not drawn) [[^14C]fluciclovine, trans-1-amino-3-fluoro[1-^14C]cyclobutanecarboxylic acid] | 58.8 | 41.2 | no significant difference | negligible |
| 3.98 ± 1.77 | 8.95 ± 1.96 | N[C@]1(C(=O)O)C[C@@H](F)C1 [fluciclovine] | – | – | – | – |
